In ChEMBL document CHEMBL1122017, “Synthesis and peripheral cardiovascular action of cis- and trans-2-(3,4-dimethoxybenzyl)cyclopentylamine hydrochlorides” (1982):

Assays:
Canis familiaris [1] = test: Mean percent decrease in mean blood pressure was determined at the dose of 15 umol/kg in mongrel dogs; assay type: functional, Canis lupus familiaris
Canis familiaris [2] = test: Mean percent decrease in mean blood pressure was determined at the dose of 15 umol/kg (2 minutes after injection) in mongrel dogs; assay type: functional, Canis lupus familiaris

| Structure (SMILES) | Decrease in blood pressure (Canis familiaris [1]) | Decrease in blood pressure (Canis familiaris [2]) |
| --- | --- | --- |
| COc1ccc(C[C@@H]2CCC[C@@H]2N)cc1OC | 30% | 37.9% |
| COc1ccc(C[C@@H]2CCC[C@H]2N)cc1OC | 25.1% | 7.5% |
